Measured values reported in the CheMixHub viscosity set.

Experiment: xn = mol fraction of the nth substance listed

CCCCN + C1CCCCC1
viscosity [mPa·s], 101 kPa
Conditions | 303.15 K | 313.15 K
x1 = 0.00966 | 0.8095 | 0.7083
x1 = 0.01973 | 0.8005 | 0.6998
x1 = 0.02822 | 0.7907 | 0.6925
x1 = 0.03804 | 0.7823 | 0.6831
x1 = 0.04713 | 0.7702 | 0.6749
x1 = 0.05811 | 0.758 | 0.6646
x1 = 0.0674 | 0.7469 | 0.6553
x1 = 0.07236 | 0.7374 | 0.6487
x1 = 0.08731 | 0.7267 | 0.637
x2 = 0.1009 | 0.453 | –
x2 = 0.2007 | 0.467 | –
x2 = 0.3012 | 0.492 | –
x2 = 0.3987 | 0.501 | –
x2 = 0.4982 | 0.529 | –
x2 = 0.5729 | 0.553 | –
x2 = 0.7003 | 0.601 | –
x2 = 0.7863 | 0.652 | –
x2 = 0.8993 | 0.725 | –

CC[N+](=O)[O-] + CCC(C)O
viscosity [mPa·s], 101.33 kPa
Conditions | 293.15 K | 303.15 K | 313.15 K
x2 = 0.05 | 0.679 | 0.605 | 0.543
x2 = 0.1 | 0.68 | 0.601 | 0.538
x2 = 0.15 | 0.684 | 0.604 | 0.536
x2 = 0.2001 | 0.704 | 0.616 | 0.542
x2 = 0.25 | 0.727 | 0.632 | 0.555
x2 = 0.3002 | 0.759 | 0.652 | 0.569
x2 = 0.35 | 0.793 | 0.676 | 0.586
x2 = 0.4 | 0.845 | 0.716 | 0.61
x2 = 0.45 | 0.904 | 0.75 | 0.64
x2 = 0.5 | 0.971 | 0.8 | 0.675
x2 = 0.55 | 1.034 | 0.847 | 0.707
x2 = 0.5999 | 1.123 | 0.909 | 0.75
x2 = 0.6499 | 1.236 | 0.98 | 0.801
x2 = 0.7 | 1.378 | 1.07 | 0.862
x2 = 0.7497 | 1.516 | 1.169 | 0.935
x2 = 0.8 | 1.723 | 1.319 | 1.026
x2 = 0.8499 | 1.983 | 1.484 | 1.144
x2 = 0.8998 | 2.353 | 1.724 | 1.304
x2 = 0.9499 | 2.873 | 2.05 | 1.511

CCCC(=O)OCC + Clc1ccccc1
viscosity [mPa·s], 101.3 kPa
Conditions | 308.15 K | 318.15 K
x1 = 0.0537 | 0.646 | 0.596
x1 = 0.0994 | 0.637 | 0.588
x1 = 0.1869 | 0.622 | 0.574
x1 = 0.357 | 0.599 | 0.552
x1 = 0.4049 | 0.593 | 0.548
x1 = 0.4939 | 0.585 | 0.541
x1 = 0.5929 | 0.579 | 0.535
x1 = 0.6953 | 0.574 | 0.532
x1 = 0.7941 | 0.573 | 0.532
x1 = 0.9017 | 0.573 | 0.534
x1 = 0.9369 | 0.574 | 0.535

CC[N+](=O)[O-] + Cc1ccc(C)cc1
293.15 K, 101.33 kPa
Conditions | viscosity [mPa·s]
x1 = 0.0968 | 0.633
x1 = 0.1917 | 0.629
x1 = 0.3 | 0.627
x1 = 0.4039 | 0.626
x1 = 0.4933 | 0.626
x1 = 0.6083 | 0.629
x1 = 0.6994 | 0.633
x1 = 0.7938 | 0.644
x1 = 0.9011 | 0.66

CCCCN + CCCCCCCO
viscosity [mPa·s], 101.33 kPa
Conditions | 303.15 K | 313.15 K | 323.15 K
x1 = 0.0997 | 4.157 | 3.079 | 2.366
x1 = 0.122 | 3.964 | 2.931 | –
x1 = 0.1998 | 3.439 | 2.557 | –
x1 = 0.201 | 3.328 | 2.535 | 1.993
x1 = 0.2914 | 2.866 | 2.134 | –
x1 = 0.3 | 2.671 | 2.069 | 1.627
x1 = 0.4035 | 2.125 | 1.684 | 1.346
x1 = 0.4133 | 2.169 | 1.636 | –
x1 = 0.4897 | 1.797 | 1.363 | –
x1 = 0.5 | 1.669 | 1.336 | 1.094
x1 = 0.6006 | 1.294 | 1.056 | 0.879
x1 = 0.6172 | 1.284 | 0.9879 | –
x1 = 0.7002 | 0.975 | 0.797 | 0.676
x1 = 0.7147 | 0.9851 | 0.7769 | –
x1 = 0.8001 | 0.77 | 0.655 | 0.563
x1 = 0.8091 | 0.761 | 0.6198 | –
x1 = 0.8999 | 0.606 | 0.518 | 0.451
x1 = 0.907 | 0.5793 | 0.4903 | –

CCCCN + COCCO
308.15 K, 101 kPa
Conditions | viscosity [mPa·s]
x2 = 0.1234 | 0.5285
x2 = 0.2404 | 0.6274
x2 = 0.3516 | 0.7219
x2 = 0.4576 | 0.8199
x2 = 0.5606 | 0.9142
x2 = 0.6503 | 0.9868
x2 = 0.7471 | 1.048
x2 = 0.8351 | 1.111
x2 = 0.9193 | 1.173

CCCCN + COC(C)=O
303.15 K, 101 kPa
Conditions | viscosity [mPa·s]
x1 = 0.1441 | 0.4159
x1 = 0.2526 | 0.4351
x1 = 0.35 | 0.4469
x1 = 0.454 | 0.4552
x1 = 0.5721 | 0.458
x1 = 0.686 | 0.4596
x1 = 0.7578 | 0.4709
x1 = 0.8757 | 0.4985

CCCCN + O=C1CCCCC1
Conditions | viscosity [mPa·s]
298.15 K, 101 kPa, x2 = 0.0765 | 0.623
298.15 K, 101 kPa, x2 = 0.157 | 0.754
298.15 K, 101 kPa, x2 = 0.2421 | 0.903
298.15 K, 101 kPa, x2 = 0.3319 | 1.06
298.15 K, 101 kPa, x2 = 0.427 | 1.223
298.15 K, 101 kPa, x2 = 0.5278 | 1.392
298.15 K, 101 kPa, x2 = 0.6349 | 1.563
298.15 K, 101 kPa, x2 = 0.7488 | 1.725
298.15 K, 101 kPa, x2 = 0.8702 | 1.88
303.15 K, 101.33 kPa, x1 = 0.1251 | 2.752
303.15 K, 101.33 kPa, x1 = 0.2012 | 2.984
303.15 K, 101.33 kPa, x1 = 0.2448 | 3.075
303.15 K, 101.33 kPa, x1 = 0.3617 | 3.092
303.15 K, 101.33 kPa, x1 = 0.5296 | 2.811
303.15 K, 101.33 kPa, x1 = 0.6105 | 2.592
303.15 K, 101.33 kPa, x1 = 0.7626 | 1.94
303.15 K, 101.33 kPa, x1 = 0.887 | 1.202

CCC(C)(C)C + CCCCCCCCCCCCCCCC
298 K, 101.33 kPa
Conditions | viscosity [mPa·s]
x1 = 0.1107 | 2.735
x1 = 0.2098 | 2.405
x1 = 0.3108 | 2.071
x1 = 0.4014 | 1.788
x1 = 0.5013 | 1.486
x1 = 0.6057 | 1.211
x1 = 0.7048 | 0.9511
x1 = 0.8022 | 0.711
x1 = 0.9014 | 0.5046

O=[N+]([O-])[O-].[Ag+] + O
298.15 K, 101 kPa
Conditions | viscosity [mPa·s]
x1 = 0.02589 | 0.99
x1 = 0.05251 | 1.134
x1 = 0.09523 | 1.451
x1 = 0.1797 | 2.439

O=C(O)C(Cl)(Cl)Cl + CC(=O)O
298.15 K, 101 kPa
Conditions | viscosity [mPa·s]
x1 = 0.0737 | 1.532
x1 = 0.1777 | 2.228
x1 = 0.3209 | 3.362
x1 = 0.4348 | 4.346
x1 = 0.5262 | 5.176
x1 = 0.5853 | 5.859
x1 = 0.6581 | 6.854
